Test results reported in article PMC7162861, “Synthesis, cytotoxicity, pharmacokinetic profile, binding with DNA and BSA of new imidazo[1,2-a]pyrazine-benzo[d]imidazol-5-yl hybrids” (Scientific Reports, 2020).
Where two headings read alike, the source gives them in different places.

What was measured:
[1] = system: NCI-60 cancer cell panels; assay: NCI cytotoxicity screen, full panel summary; assay type: cell-based
Method: Cytotoxicity was performed at National Cancer Institute (NCI), Bethesda, USA as per their protocols.

[2] = system: Human Embryonic Kidney cells (HEK293); assay: MTT assay on normal cell line; assay type: cell-based; details: 48 h
Method: HEK-293 cells (human embryonic kidney cells) were grown in Dulbecco’s modified eagle’s medium (DMEM) supplemented with 100 U/ml penicillin, 10% FBS, […] streptomycin and 50 mM glutamine. Furthermore, cells were harvested using trypsin and seeded in a 96-well cell culture plate for the MTT (3-(4,5-Dimethylthiazol-2-yl)-2,5-diphenyltetrazolium bromide) assay. The test compound was solubilized in cell culture grade DMSO. Once the cells in 96-well plates were 70% confluent, the compound was injected to the cells at five concentrations (0.01, 0.1, 1, 10, 100 µM) at 37 °C for 48 h (made in DMEM supplemented with 1% antibiotic and 10% FBS). After 48 h, cells were washed with PBS and added with 100 μL of fresh media in each well along with 10 μL of MTT reagent (5 mg/mL) for another 4 h. After 4 h, the media was again removed and added 100 μL cell culture grade DMSO to dissolve the formazan crystals formed by the reduction of MTT by live cells. The quantity of formed formazan crystal was determined as alterations in absorbance at 570 nm wavelength using ELISA plate reader (Bio-Tek). All tests were accomplished three times. The cell toxicity (%) was calculated using the following formula: %CellToxicity=100−ODoftreatedwell/ODofuntreatedwell×100

EtBr-CT-DNA complex = assay: Competitive binding with ethidium bromide for CT-DNA; set-up: species or system calf
Method: Ethidium bromide (EtBr) displacement experiments were performed by incremental addition of compound 31 to complex of EtBr-DNA. The EtBr (3 µM) and CT-DNA (30 µM) were titrated with incremental addition of compound 31 (0–85 µM) in phosphate buffer (pH 7.4). […] The quenching constant (Kq) was calculated using the Stern-Volmer equation (Eq. 2). The apparent binding constant (Kapp) was obtained from known binding constant for ethidium bromide (KEtBr = 1 × 10^7 M^−1) using the following equation (Eq. 4).4 Kapp=KEtBr[EtBr]/[compound]50% where [compound]50% and [EtBr] are the concentrations of the compound at 50% quenching of DNA-bound ethidium bromide emission intensity and ethidium bromide (3 µM), respectively.

CT-DNA = assay: Thermal denaturation of CT-DNA; assay type: binding, calf; details: CT-DNA 8.5 µM : compound 10 µM, pH 7.4
Method: DNA melting studies were completed by measuring the absorption spectra at 260 nm of CT-DNA (8.5 µM) and CT-DNA-derivative 31 complex (8.5 µM:10 µM) in phosphate buffer (pH 7.4) at varying temperature from 20 to 100 °C using spectrophotometer connected with Peltier.

c1cn2cc(-c3ccc4ncn(C5CCCCC5)c4c3)nc(-c3ccc4c(c3)ncn4C3CCCCC3)c2n1 [Compound 31, 8-(1-cyclohexyl-1H-benzo[d]imidazol-5-yl)-6-(1-cyclohexyl-1H-benzo[d]imidazol-6-yl)imidazo[1,2-a]pyrazine]
GI50 ([1]; Homo sapiens, read-out: Full panel mean-graph midpoint (MG-MID) GI50): 2.12 µM | GI50 ([1]; Homo sapiens, read-out: GI50 range over nine panels of cell lines): 0.8 to 2.87 µM | CC50 ([1]; Homo sapiens, average over all cancer cell lines, five dose, read-out: Full panel mean-graph midpoint (MG-MID) LC50): 6.63 µM | Full panel mean-graph midpoint (MG-MID) TGI ([1]; average over all cancer cell lines, five dose): 4.73 µM | number of cell lines with cytostatic effect ([1]; single dose 10 µM): 8 | number of cell lines with cytotoxic effect ([1]; single dose 10 µM): 51 | % survival of HEK293 cells ([2]; 10^−4 M): above 79% | % survival of HEK293 cells ([2]; 10^−5 M): > 83% | % survival of HEK293 cells ([2]; 10^−6 M): > 84% | % survival of HEK293 cells ([2]; 10^−7 M): > 89% | % survival of HEK293 cells ([2]; 10^−8 M): > 90% | apparent binding constant Kapp (EtBr-CT-DNA complex; EtBr displacement, Eq. 4): 750000 M⁻¹ | quenching constant (Stern-Volmer) (EtBr-CT-DNA complex; EtBr-CT-DNA 3 µM:30 µM, compound 0-80 µM): 11600 M⁻¹ | ∆Tm (CT-DNA): 12 °C
